Experiments:
[1] = test system: pJNK in HEK293 cells; assay: In-cell western (ICW) pJNK inhibition in HEK293; assay type: cell-based; settings: 2 h pre-incubation, sorbitol stimulation
Procedure: (§1) HEK293, Beas2B and 3T3 cells were plated 24 hours before procedure on 384 well clear bottom black flat plates (Corning) pre-coated with Fibronectin (Sigma) diluted in PBS to a concentration of 5 μg/ml 45 minutes prior to cells introduction. Cells were plated using Multidrop™ Combi reagent dispenser (Thermo Fisher Scientific). Compound, reagents and antibody dispensing as well as washes were performed with a CyBio liquid handler (Analytik). Cells were pre-incubated with a small molecule or up to 1% DMSO for 2 h before fixation. HEK293, 3T3 or Beas2B cells were treated with 0.6M/0.2M/0.2M D-Sorbitol/PBS (Sigma) for 20/40/40 min. respectively, before fixation. Media was removed and wells were immediately fixed with 150 μl per well of 3.7% formaldehyde/PBS fixing solution for 20 min. Formaldehyde was then aspired and cells were permeabilized with 150 μl of 0.5% Triton x-100/PBS solution for 10 min. After aspiration cells were washed with ice-cold methanol and stored at −20° C., for 10 min. Methanol was aspired and cells were blocked with 150 μl blocking buffer (LICOR) for 90 min. Primary antibody Phospho-SAPK/JNK T183/Y185 (CST; 9251S) was diluted 1:1000 in blocking buffer and was applied 50 μl per well, except control wells to which only blocking buffer was applied, O.N. (16 h) at 4° C. with mild shaking. Primary antibody was aspired, wells were washed with 150 μl 0.1% Tween20/PBS (Sigma) washing solution three times for 7 min. IRDye® 800CW Goat anti-Rabbit IgG Secondary antibody (LICOR) was then diluted 1:1200 in blocking buffer with 50 μl applied per well on control wells only (no CellTag control), then CellTag700 (1:2000) was added to the solution and 50 μl were added to all experiment wells, for 1 h at room temperature. Wells were aspired and washed again with 150 μl 0.1% Tween20/PBS (Sigma) washing solution three times for 7 min. plate was dried and scanned with Odyssey CLx imaging system at 700 nm and 800 nm (Licor). Wells signals were analyzed with Odyssey software. The signal was normalized by the CellTag700 signal.
(§2) To rapidly assess the cellular activity (EC50) with full dose response curves of the MKK7 covalent inhibitors, according to some embodiments of the present invention, an in-cell western assay was adapted to a 384 well plate format over traditional western blot, and monitored phospho-JNK (pJNK) levels in response to osmotic shock. We first characterized the dynamics of pJNK in response to sorbitol. Sufficient dynamic range for pJNK is achieved at 20 minutes in HEK293 cells and at 40 minutes in 3T3 and Beas2B cells. The compound's activity was assessed by pre-treating cells with either compound or DMSO for 2 hours, followed by Sorbitol stimulation. The response of pJNK, and its substrates, pc-Jun and pATF2, was measured, as well as pP38, which is a substrate of MKK4 but not MKK7, and pERK in HEK293 cells, and the results are presented in Table 5 below.

[2] = target: T1, MKK7 (Homo sapiens, UniProt O14733); assay: In vitro kinase activity assay for MKK7 (Nanosyn); assay type: biochemical; settings: read-out: MKK7 IC50 in vitro
T1 construct: purchased Nanosyn (contract assay)
T1 sequence (O14733 1-419): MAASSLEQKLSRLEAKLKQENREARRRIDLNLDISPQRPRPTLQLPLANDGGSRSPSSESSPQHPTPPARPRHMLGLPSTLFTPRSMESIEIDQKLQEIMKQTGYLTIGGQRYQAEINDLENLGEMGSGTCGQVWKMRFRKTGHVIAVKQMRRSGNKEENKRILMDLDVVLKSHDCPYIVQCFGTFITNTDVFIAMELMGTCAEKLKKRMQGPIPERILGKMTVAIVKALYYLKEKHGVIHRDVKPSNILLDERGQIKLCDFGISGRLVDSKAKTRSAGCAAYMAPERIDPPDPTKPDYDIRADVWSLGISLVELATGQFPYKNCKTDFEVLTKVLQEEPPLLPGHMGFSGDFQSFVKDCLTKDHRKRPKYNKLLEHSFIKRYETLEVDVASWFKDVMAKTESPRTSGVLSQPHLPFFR
Procedure: Based on visual inspection of the top 500 predictions, 10 compounds were selected for synthesis and testing (see, Table 1). The “Docking rank” is given in its respective run, whereas four virtual libraries of acrylamides were docked separately, based on the amine precursor for the acrylamide (primary or secondary aliphatic amines, primary or secondary aromatic amines). In vitro kinase activity assay was carried out by Nanosyn, as described below.
(§3) In Vitro Activity Assays for MKK7 or MKK4 (Carried by Nanosyn):
(§4) Exemplary test compounds, according to some embodiments of the present invention, were diluted in DMSO to a final concentration that ranged from 10 μM to 0.0565 nM, while final concentration of DMSO in all assays was kept at 1%. Reference compound, Staurosporine, was tested in a similar manner. […] After incubation, activity of now activated JNK1 was tested in the presence of 30 μM ATP ATP for 17 h (MKK7) or 4 h (MKK4).

[3] = test system: pJNK in 3T3 WT cells; assay: In-cell western (ICW) pJNK inhibition in 3T3 WT; assay type: cell-based; settings: 3T3 WT, sorbitol stimulation; for EC50: ICW, 2 h pre-incubation
Procedure: as §1, §2
Wildtype 3T3 cells, 3T3 MKK7 double knock-out (MKK7^−/−) cells and MKK4/7 double knockouts (MKK4/7^−/−) were used to validate on target activity of the MKK7 covalent inhibitors presented herein.

[4] = test system: pP38 in HEK293 cells; assay: pP38 response in HEK293 cells; assay type: cell-based; settings: at 10 μM
Procedure: as §2
(§5) With similar values for pcJun (2.26 μM and 1.67 μM, respectively) and pATF2 (2.79 μM 5.19 μM, respectively).

[5] = test system: pATF2 in HEK293 cells; assay: pATF2 inhibition in HEK293 cells; assay type: cell-based; settings: Homo sapiens
Procedure: as §1, with “Primary antibody was aspired, wells were washed with 150 μl 0.1% Tween20/PBS (Sigma) washing solution three times for 7 min. IRDye® 800CW Goat anti-Rabbit IgG Secondary antibody (LICOR) was then diluted 1:1200 in blocking buffer with 50 μl applied per well on control wells only (no CellTag control), then CellTag700 (1:2000) was added to the solution and 50 μl were added to all experiment wells, for 1 h at room temperature. Wells were aspired and washed again with 150 μl 0.1% Tween20/PBS (Sigma) washing solution three times for 7 min. plate was dried and scanned with Odyssey CLx imaging system at 700 nm and 800 nm (Licor).” left out, “The signal was normalized by the CellTag700 signal.” left out
as §2, with “We first characterized the dynamics of pJNK in response to sorbitol. Sufficient dynamic range for pJNK is achieved at 20 minutes in HEK293 cells and at 40 minutes in 3T3 and Beas2B cells.” left out

[6] = test system: p-cJun in HEK293 cells; assay: p-cJun inhibition in HEK293 cells; assay type: cell-based; settings: Homo sapiens
Procedure: as §1, with “Primary antibody was aspired, wells were washed with 150 μl 0.1% Tween20/PBS (Sigma) washing solution three times for 7 min. IRDye® 800CW Goat anti-Rabbit IgG Secondary antibody (LICOR) was then diluted 1:1200 in blocking buffer with 50 μl applied per well on control wells only (no CellTag control), then CellTag700 (1:2000) was added to the solution and 50 μl were added to all experiment wells, for 1 h at room temperature. Wells were aspired and washed again with 150 μl 0.1% Tween20/PBS (Sigma) washing solution three times for 7 min. plate was dried and scanned with Odyssey CLx imaging system at 700 nm and 800 nm (Licor).” left out, “The signal was normalized by the CellTag700 signal.” left out
as §2, with “We first characterized the dynamics of pJNK in response to sorbitol. Sufficient dynamic range for pJNK is achieved at 20 minutes in HEK293 cells and at 40 minutes in 3T3 and Beas2B cells.” left out

[7] = target: T2, MKK4 (Homo sapiens, UniProt P45985); assay: In vitro activity assay for MKK4 (Nanosyn); assay type: biochemical
T2 construct: purchased Nanosyn (contract assay)
T2 sequence (P45985 1-399): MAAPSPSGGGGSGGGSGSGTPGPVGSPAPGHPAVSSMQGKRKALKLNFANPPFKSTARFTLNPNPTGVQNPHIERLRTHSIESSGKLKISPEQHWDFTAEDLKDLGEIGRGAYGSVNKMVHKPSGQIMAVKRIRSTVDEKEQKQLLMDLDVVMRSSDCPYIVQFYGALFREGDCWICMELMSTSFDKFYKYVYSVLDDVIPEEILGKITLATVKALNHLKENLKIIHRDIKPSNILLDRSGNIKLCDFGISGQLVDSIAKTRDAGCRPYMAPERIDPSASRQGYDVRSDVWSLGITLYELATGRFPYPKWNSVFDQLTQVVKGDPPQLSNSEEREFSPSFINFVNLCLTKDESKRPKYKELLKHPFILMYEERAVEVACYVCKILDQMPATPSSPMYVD
Procedure: as §3, §4

[8] = test system: pERK in HEK293 cells; assay: pERK response in HEK293 cells; assay type: cell-based; settings: at 10 μM
Procedure: as §2, §5

[9] = Metabolic stability in monkey liver microsomes; assay type: in vitro ADME
Description: (§6) A reference compound, REF1250, was used in this study: […]

[10] = Metabolic stability in human liver microsomes; assay type: in vitro ADME; settings: for half-life: human, liver microsomes
Description: as §6

[11] = Metabolic stability in rat liver microsomes; assay type: in vitro ADME; settings: for half-life: rat, liver microsomes
Description: as §6

[12] = Metabolic stability in dog liver microsomes; assay type: in vitro ADME; settings: for half-life: dog, liver microsomes
Description: as §6

[13] = Metabolic stability in mouse liver microsomes; assay type: in vitro ADME; settings: for half-life: mouse, liver microsomes
Description: as §6

[14] = test system: primary mouse B-cells; assay: Primary B-cell activation (CD86+ FACS) in response to LPS; assay type: cell-based; settings: 10 μM, 2 hours pre-incubation
Description: Compounds Block Activation of Primary Mouse B-Cells:
JNK is known to mediate activation of B-cells in response to lypopolysacharide (LPS) through the TLR4 signaling pathway as well as in response to B-cell receptor activation (stimulated e.g. with an anti-IgM antibody). Primary B-cells were isolated from the spleen of mice and assessed for their B-cell activation, via FACS analysis of CD86+ expression, in response to LPS in the presence or absence of the covalent MKK7 enzyme inhibitors presented herein, as well as a positive control JNK inhibitor, JNK-IN-8.
At 10 μM and 2 hours pre-incubation before stimulation, GO80 was able to inhibit 60% of the CD86+ response.

[15] = Homo sapiens, HEK293, HEK293, ICW

| Compound | EC50 [1, 15] [nM] | IC50 [2] [nM] | EC50 [3] [nM] | IC50 [7] [nM] | % remaining @ 40 min [9] [%] | half-life [9] [min] | % remaining @ 40 min [10] [%] | half-life [10] [min] | % remaining @ 40 min [11] [%] | half-life [11] [min] | % remaining @ 40 min [12] [%] | half-life [12] [min] | % remaining @ 40 min [13] [%] | half-life [13] [min] | EC50 ([1]; HEK293, ICW) [nM] | inhibition of the CD86+ response [14] [%] | further results |
| --- | --- | --- | --- | --- | --- | --- | --- | --- | --- | --- | --- | --- | --- | --- | --- | --- | --- |
| C=CC(=O)Nc1cccc(-c2n[nH]c3cc([N+](=O)[O-])ccc23)c1 [GO37] | 730 | 14 | 4200 | > 10000 |  |  |  |  |  |  |  |  |  |  |  |  | IC50 [3]: 5330 nM; effect on pP38 levels [4]: did not affect; EC50 [5]: 3710 nM; EC50 [6]: 2520 nM; effect on pERK levels [8]: did not affect |
| C=CC(=O)Nc1cccc(-c2n[nH]c3cc(Br)ccc23)c1 [GO98] |  | 10 |  | > 10000 | 0 | < 5 | 0 | < 5 | 2 | 6 | 0 | < 5 | 0 | < 5 |  |  |  |
| C=CC(=O)Nc1cc(C#N)cc(-c2n[nH]c3cc(C)ccc23)c1 [GO108] | 3700 | 2 |  | > 10000 | 0 | < 5 | 0 | < 5 | 6 | 10 | 0 | < 5 | 0 | < 5 | 2300 |  |  |
| Cc1cc(NC(=O)c2cccc(NC(=O)/C=C/CN(C)C)c2)ccc1Nc1nccc(-c2cccnc2)n1 [JNK-IN-8, reference compound] |  |  |  |  |  |  |  |  |  |  |  |  |  |  |  | ~90 |  |
| C=CC(=O)Nc1cc(-c2n[nH]c3ccccc23)ccn1 [PCM475] |  |  | 300 |  | 18 |  | 0 |  | 22 |  | 5 |  | 0 |  | 900 | ~90 | Halflife [9]: 16 min; Halflife [10]: <5 min; Halflife [11]: 18 min; Halflife [12]: 9 min; Halflife [13]: <5 min |

Source: patent publication US20210238173A1, “MITOGEN-ACTIVATED PROTEIN KINASE KINASE 7 INHIBITORS” (Yeda Research and Development Co. Ltd., priority 2018, published 2021)
